Experimental data: PMC5392334, “Discovery and characterization of a novel irreversible EGFR mutants selective and potent kinase inhibitor CHMFL-EGFR-26 with a distinct binding mode” (Oncotarget, 2017)

Key:
[1] = target: T1, ABL1(T315I)-nonphosphorylated (Homo sapiens, UniProt P00519, T315I); assay: KinomeScan; format: binding; details: read-out: % control
T1 construct: purchased DiscoveRx KINOMEscan

BMX = target: T2, BMX (Homo sapiens, UniProt P51813); assay: KinomeScan; format: binding; details: read-out: % control
T2 construct: purchased Invitrogen (SelectScreen service)
T2 sequence (P51813 whole entry): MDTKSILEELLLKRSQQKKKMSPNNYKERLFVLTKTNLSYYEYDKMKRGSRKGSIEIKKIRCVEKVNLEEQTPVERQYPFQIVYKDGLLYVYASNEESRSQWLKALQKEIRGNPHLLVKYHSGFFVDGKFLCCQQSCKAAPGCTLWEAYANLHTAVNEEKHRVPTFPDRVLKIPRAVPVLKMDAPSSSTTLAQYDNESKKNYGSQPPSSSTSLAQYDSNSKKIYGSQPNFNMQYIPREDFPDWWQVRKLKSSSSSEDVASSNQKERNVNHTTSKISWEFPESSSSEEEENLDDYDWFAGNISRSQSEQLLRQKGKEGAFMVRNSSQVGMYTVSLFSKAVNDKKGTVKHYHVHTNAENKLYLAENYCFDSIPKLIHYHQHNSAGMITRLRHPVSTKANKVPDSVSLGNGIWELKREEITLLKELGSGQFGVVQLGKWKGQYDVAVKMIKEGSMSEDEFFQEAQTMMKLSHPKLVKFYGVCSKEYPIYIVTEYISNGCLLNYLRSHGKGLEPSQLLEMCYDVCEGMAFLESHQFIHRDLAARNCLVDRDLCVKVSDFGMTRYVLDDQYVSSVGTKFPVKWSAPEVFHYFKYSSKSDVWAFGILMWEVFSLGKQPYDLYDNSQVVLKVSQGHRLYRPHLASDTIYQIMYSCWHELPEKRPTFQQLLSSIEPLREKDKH

CAMK1D = target: T3, CAMK1D (Homo sapiens, UniProt Q8IU85); assay: KinomeScan; format: binding; details: read-out: % control
T3 construct: purchased DiscoveRx KINOMEscan

CDC2L5 = target: T4, CDC2L5 (Homo sapiens, UniProt Q14004); assay: KinomeScan; format: binding; details: read-out: % control
T4 construct: purchased DiscoveRx KINOMEscan

CDKL1 = target: T5, CDKL1 (Homo sapiens, UniProt Q00532); assay: KinomeScan; format: binding; details: read-out: % control
T5 construct: purchased DiscoveRx KINOMEscan

CLK4 = target: T6, CLK4 (Homo sapiens, UniProt Q9HAZ1); assay: KinomeScan; format: binding; details: read-out: % control
T6 construct: purchased DiscoveRx KINOMEscan

CSF1R = target: T7, CSF1R (Homo sapiens, UniProt P07333); assay: KinomeScan; format: binding; details: read-out: % control
T7 construct: purchased DiscoveRx KINOMEscan
T7 sequence (P07333 20-972): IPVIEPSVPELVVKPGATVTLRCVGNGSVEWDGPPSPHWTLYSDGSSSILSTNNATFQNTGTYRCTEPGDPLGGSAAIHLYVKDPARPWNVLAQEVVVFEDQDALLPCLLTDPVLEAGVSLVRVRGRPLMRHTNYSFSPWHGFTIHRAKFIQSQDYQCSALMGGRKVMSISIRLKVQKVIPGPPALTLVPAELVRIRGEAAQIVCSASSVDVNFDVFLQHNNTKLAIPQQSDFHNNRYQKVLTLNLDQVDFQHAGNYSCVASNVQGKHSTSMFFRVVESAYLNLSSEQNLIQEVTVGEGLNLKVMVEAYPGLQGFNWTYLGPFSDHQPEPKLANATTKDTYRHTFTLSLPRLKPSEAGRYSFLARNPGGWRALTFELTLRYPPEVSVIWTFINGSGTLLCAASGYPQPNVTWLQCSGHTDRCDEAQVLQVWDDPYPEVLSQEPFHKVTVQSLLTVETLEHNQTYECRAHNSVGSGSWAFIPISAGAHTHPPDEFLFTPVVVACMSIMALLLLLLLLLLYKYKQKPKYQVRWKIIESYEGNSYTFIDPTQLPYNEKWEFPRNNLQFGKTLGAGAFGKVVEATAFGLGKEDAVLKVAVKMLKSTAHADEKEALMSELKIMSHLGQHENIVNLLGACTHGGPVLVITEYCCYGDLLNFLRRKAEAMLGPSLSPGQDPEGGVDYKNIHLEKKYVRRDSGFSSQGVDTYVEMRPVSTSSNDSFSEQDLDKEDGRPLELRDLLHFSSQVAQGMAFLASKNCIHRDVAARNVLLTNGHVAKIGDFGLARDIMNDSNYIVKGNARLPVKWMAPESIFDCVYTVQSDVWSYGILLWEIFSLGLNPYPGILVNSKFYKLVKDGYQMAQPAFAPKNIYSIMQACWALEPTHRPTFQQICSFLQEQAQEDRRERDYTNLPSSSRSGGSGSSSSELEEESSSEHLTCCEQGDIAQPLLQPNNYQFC

DYRK1A = target: T8, DYRK1A (Homo sapiens, UniProt Q13627); assay: KinomeScan; format: binding; details: read-out: % control
T8 construct: purchased DiscoveRx KINOMEscan

EPHA3 = target: T9, EPHA3 (Homo sapiens, UniProt P29320); assay: KinomeScan; format: binding; details: read-out: % control
T9 construct: purchased DiscoveRx KINOMEscan
T9 sequence (P29320 21-983): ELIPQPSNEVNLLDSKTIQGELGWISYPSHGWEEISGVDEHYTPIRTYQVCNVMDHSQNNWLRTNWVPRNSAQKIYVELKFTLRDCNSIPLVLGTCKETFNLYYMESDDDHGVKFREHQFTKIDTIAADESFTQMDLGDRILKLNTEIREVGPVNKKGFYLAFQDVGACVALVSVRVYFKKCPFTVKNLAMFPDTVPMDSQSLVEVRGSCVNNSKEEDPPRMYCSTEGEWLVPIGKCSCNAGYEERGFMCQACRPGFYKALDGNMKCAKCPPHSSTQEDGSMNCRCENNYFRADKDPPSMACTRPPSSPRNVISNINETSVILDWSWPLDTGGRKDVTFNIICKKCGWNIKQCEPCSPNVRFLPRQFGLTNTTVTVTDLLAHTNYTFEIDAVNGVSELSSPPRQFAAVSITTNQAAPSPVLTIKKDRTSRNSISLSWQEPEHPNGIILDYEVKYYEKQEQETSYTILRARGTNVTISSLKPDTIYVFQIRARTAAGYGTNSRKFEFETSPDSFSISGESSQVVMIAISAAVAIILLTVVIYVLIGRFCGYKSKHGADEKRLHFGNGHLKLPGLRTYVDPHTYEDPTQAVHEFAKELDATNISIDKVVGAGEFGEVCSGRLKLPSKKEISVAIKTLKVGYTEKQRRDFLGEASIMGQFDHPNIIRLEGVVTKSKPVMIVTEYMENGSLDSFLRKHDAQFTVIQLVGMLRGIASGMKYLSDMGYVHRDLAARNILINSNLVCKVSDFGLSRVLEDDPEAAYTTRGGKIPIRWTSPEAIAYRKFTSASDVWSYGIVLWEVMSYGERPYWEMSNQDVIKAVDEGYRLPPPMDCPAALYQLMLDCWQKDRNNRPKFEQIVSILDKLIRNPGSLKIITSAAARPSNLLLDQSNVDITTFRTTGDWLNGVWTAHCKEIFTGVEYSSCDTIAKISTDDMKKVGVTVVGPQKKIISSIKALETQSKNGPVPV

FGFR3(G697C) = target: T10, FGFR3(G697C) (Homo sapiens, UniProt P22607, G697C); assay: KinomeScan; format: binding; details: read-out: % control
T10 construct: purchased DiscoveRx KINOMEscan

FLT1 = target: T11, FLT1 (Homo sapiens, UniProt P17948); assay: KinomeScan; format: binding; details: read-out: % control
T11 construct: purchased DiscoveRx KINOMEscan

FLT4 = target: T12, FLT4 (Homo sapiens, UniProt P35916); assay: KinomeScan; format: binding; details: read-out: % control
T12 construct: purchased DiscoveRx KINOMEscan

GRK4 = target: T13, GRK4 (Homo sapiens, UniProt P32298); assay: KinomeScan; format: binding; details: read-out: % control
T13 construct: purchased DiscoveRx KINOMEscan

HIPK3 = target: T14, HIPK3 (Homo sapiens, UniProt Q9H422); assay: KinomeScan; format: binding; details: read-out: % control
T14 construct: purchased DiscoveRx KINOMEscan

MARK3 = target: T15, MARK3 (Homo sapiens, UniProt P27448); assay: KinomeScan; format: binding; details: read-out: % control
T15 construct: purchased DiscoveRx KINOMEscan

MEK3 = target: T16, MEK3 (Homo sapiens, UniProt P46734); assay: KinomeScan; format: binding; details: read-out: % control
T16 construct: purchased DiscoveRx KINOMEscan
T16 sequence (P46734 whole entry): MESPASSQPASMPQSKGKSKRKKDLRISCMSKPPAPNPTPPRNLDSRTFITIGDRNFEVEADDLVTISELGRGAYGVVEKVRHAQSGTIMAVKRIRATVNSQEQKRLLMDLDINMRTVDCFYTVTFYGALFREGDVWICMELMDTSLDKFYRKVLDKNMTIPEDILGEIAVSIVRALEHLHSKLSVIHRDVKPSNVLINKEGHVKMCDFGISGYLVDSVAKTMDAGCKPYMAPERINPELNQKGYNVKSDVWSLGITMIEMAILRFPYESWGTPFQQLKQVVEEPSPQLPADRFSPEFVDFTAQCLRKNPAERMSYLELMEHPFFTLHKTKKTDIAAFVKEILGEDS

MELK = target: T17, MELK (Homo sapiens, UniProt Q14680); assay: KinomeScan; format: binding; details: read-out: % control
T17 construct: purchased DiscoveRx KINOMEscan

MST2 = target: T18, MST2 (Homo sapiens, UniProt Q13188); assay: KinomeScan; format: binding; details: read-out: % control
T18 construct: purchased DiscoveRx KINOMEscan
T18 sequence (Q13188 whole entry): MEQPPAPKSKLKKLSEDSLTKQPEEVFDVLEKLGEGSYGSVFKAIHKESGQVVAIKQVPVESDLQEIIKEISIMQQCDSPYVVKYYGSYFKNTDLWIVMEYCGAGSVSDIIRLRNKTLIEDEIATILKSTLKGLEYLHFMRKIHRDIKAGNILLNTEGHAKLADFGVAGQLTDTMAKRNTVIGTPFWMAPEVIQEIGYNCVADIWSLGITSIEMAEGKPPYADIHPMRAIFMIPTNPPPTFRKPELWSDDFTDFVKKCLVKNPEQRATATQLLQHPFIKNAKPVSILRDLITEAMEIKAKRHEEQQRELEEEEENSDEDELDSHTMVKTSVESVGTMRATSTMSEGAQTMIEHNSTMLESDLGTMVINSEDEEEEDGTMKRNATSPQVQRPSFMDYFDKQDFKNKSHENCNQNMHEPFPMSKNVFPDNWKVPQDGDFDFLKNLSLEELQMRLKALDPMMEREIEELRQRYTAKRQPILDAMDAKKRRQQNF

NEK1 = target: T19, NEK1 (Homo sapiens, UniProt Q96PY6); assay: KinomeScan; format: binding; details: read-out: % control
T19 construct: purchased DiscoveRx KINOMEscan
T19 sequence (Q96PY6 whole entry): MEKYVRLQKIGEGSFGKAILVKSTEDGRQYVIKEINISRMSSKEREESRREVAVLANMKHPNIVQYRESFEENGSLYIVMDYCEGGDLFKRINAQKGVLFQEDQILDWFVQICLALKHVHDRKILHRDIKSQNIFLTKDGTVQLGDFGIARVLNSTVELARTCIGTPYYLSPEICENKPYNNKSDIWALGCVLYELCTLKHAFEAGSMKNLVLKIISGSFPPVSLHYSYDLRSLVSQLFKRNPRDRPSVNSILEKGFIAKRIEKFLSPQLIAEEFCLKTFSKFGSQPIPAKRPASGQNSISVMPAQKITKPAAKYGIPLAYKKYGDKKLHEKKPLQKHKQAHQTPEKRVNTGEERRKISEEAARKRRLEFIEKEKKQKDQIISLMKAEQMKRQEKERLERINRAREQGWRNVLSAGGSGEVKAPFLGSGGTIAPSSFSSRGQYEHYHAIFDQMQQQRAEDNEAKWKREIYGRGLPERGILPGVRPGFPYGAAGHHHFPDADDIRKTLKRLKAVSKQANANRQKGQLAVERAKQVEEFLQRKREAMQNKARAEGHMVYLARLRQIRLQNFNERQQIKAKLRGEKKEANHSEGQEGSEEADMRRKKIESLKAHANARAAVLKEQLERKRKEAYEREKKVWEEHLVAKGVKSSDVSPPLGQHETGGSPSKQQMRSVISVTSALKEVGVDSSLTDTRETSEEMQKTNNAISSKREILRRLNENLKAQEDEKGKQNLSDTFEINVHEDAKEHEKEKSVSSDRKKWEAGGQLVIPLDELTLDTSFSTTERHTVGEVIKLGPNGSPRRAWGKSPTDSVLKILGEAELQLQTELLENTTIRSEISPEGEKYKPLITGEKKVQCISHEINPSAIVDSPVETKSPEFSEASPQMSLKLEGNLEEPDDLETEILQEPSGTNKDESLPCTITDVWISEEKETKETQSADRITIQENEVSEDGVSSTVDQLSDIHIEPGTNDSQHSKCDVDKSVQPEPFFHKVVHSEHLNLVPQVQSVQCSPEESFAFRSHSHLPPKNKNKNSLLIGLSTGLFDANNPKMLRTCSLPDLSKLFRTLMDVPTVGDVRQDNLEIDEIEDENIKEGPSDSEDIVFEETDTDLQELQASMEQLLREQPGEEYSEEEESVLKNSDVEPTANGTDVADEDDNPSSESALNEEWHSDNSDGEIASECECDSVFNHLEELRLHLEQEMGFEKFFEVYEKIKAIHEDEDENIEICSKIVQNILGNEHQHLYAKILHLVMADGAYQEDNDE

NEK4 = target: T20, NEK4 (Homo sapiens, UniProt P51957); assay: KinomeScan; format: binding; details: read-out: % control
T20 construct: purchased DiscoveRx KINOMEscan

PAK4 = target: T21, PAK4 (Homo sapiens, UniProt O96013); assay: KinomeScan; format: binding; details: read-out: % control
T21 construct: purchased DiscoveRx KINOMEscan

PFTAIRE2 = target: T22, PFTAIRE2 (Homo sapiens, UniProt Q96Q40); assay: KinomeScan; format: binding; details: read-out: % control
T22 construct: purchased DiscoveRx KINOMEscan

PFTK1 = target: T23, PFTK1 (Homo sapiens, UniProt O94921); assay: KinomeScan; format: binding; details: read-out: % control
T23 construct: purchased DiscoveRx KINOMEscan

PHKG1 = target: T24, PHKG1 (Homo sapiens, UniProt Q16816); assay: KinomeScan; format: binding; details: read-out: % control
T24 construct: purchased DiscoveRx KINOMEscan
T24 sequence (Q16816 whole entry): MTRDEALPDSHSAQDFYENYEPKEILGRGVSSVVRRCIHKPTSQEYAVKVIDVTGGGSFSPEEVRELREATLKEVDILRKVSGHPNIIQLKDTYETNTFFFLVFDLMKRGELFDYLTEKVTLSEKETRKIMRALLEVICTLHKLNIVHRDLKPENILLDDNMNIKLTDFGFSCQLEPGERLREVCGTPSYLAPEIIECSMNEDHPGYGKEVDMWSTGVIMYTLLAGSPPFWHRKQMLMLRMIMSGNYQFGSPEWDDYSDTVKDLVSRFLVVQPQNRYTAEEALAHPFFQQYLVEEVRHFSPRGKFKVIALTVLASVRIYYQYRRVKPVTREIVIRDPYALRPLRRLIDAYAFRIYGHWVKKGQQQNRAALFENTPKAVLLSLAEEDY

PKNB(M.tuberculosis) = target: T25, PKNB(M.tuberculosis) (Mycobacterium tuberculosis, UniProt P9WI81); assay: KinomeScan; format: binding; details: read-out: % control
T25 construct: purchased DiscoveRx KINOMEscan

PRKCD = target: T26, PRKCD (Homo sapiens, UniProt Q05655); assay: KinomeScan; format: binding; details: read-out: % control
T26 construct: purchased DiscoveRx KINOMEscan

QSK = target: T27, QSK (Homo sapiens, UniProt Q9Y2K2); assay: KinomeScan; format: binding; details: read-out: % control
T27 construct: purchased DiscoveRx KINOMEscan

RET(M918T) = target: T28, RET(M918T) (Homo sapiens, UniProt P07949, M918T); assay: KinomeScan; format: binding; details: read-out: % control
T28 construct: purchased DiscoveRx KINOMEscan

SLK = target: T29, SLK (Homo sapiens, UniProt Q9H2G2); assay: KinomeScan; format: binding; details: read-out: % control
T29 construct: purchased DiscoveRx KINOMEscan

ULK3 = target: T30, ULK3 (Homo sapiens, UniProt Q6PHR2); assay: KinomeScan; format: binding; details: read-out: % control
T30 construct: purchased DiscoveRx KINOMEscan

YANK1 = target: T31, YANK1 (Homo sapiens, UniProt Q8WU08); assay: KinomeScan; format: binding; details: read-out: % control
T31 construct: purchased DiscoveRx KINOMEscan

[2] = test system: BaF3-FL-EGFR-L858R-T790M-C797S; assay: Anti-proliferation, BaF3 isogenic cell lines (CellTiter-Glo); format: cell-based; details: Mus musculus, 72 hours, triplet testing
A549 (EGFR wt) = assay: Anti-proliferation, NSCLC cell lines (CellTiter-Glo); format: cell-based; details: Homo sapiens, 72 hours, triplet testing
Experimental: (§1) The human cancer cell lines H1975, HCC827, H2122, CHO, CHL and H1355 were purchased from the American Type Culture Collection (ATCC) (Manassas, VA, USA). PC9 cell line was purchased from the Sigma-Aldrich (St. Louis, MO, USA). A549, H3255 were purchased from Cobioer Biosciences CO., LTD (Nanjing, China). […] A549 and H1355 were cultured in F-12K Nutrient Mixture (kaighn's Modification) (Gibco, USA) with 10% FBS and supplemented with 2% L-glutamine and 1% pen/strep. H3255 was cultured in BEGM media (LONZA, USA) with 10% FBS and supplemented with 2% L-glutamine and 1% pen/strep.

H1355(EGFR wt) = assay: as above; format: cell-based; details: Homo sapiens, NCI-H1355, 72 hours, triplet testing
Experimental: as §1

H1703 (EGFR wt) = assay: as above; format: cell-based; details: Homo sapiens, NCI-H1703, 72 hours, triplet testing
Experimental: as §1

H2122 (EGFR wt) = assay: as above; format: cell-based; details: Homo sapiens, NCI-H2122, 72 hours, triplet testing
Experimental: as §1

H3255 (EGFRL858R) = assay: as above; format: cell-based; details: Homo sapiens, NCI-H3255, 72 hours, triplet testing
Experimental: as §1

HCC827 (EGFR del19) = assay: as above; format: cell-based; details: Homo sapiens, 72 hours, triplet testing
Experimental: as §1

PC-9 (EGFR del19) = assay: as above; format: cell-based; details: Homo sapiens, 72 hours, triplet testing
Experimental: as §1

Question: How did the remaining binding at 1 µM [1] turn out when C=CC(=O)N1CCC[C@@H](n2nc(-c3ccc(OCc4cccc(C)n4)c(Cl)c3)c3c(N)ncnc32)C1 [CHMFL-EGFR-26] was run?
Answer: 100%

Question: And the remaining binding at 1 µM (BMX)?
Answer: 27%

Question: What about the remaining binding at 1 µM (CAMK1D) of the same molecule?
Answer: 91%

Question: What about the remaining binding at 1 µM (CDC2L5) of the same molecule?
Answer: 100%

Question: What about the remaining binding at 1 µM (CDKL1) of the same molecule?
Answer: 100%

Question: What about the remaining binding at 1 µM (CLK4) of the same molecule?
Answer: 100%

Question: And the remaining binding at 1 µM (CSF1R)?
Answer: 98%

Question: And the remaining binding at 1 µM (DYRK1A)?
Answer: 100%

Question: What about the remaining binding at 1 µM (EPHA3) of the same molecule?
Answer: 89%

Question: And the remaining binding at 1 µM (FGFR3(G697C))?
Answer: 100%

Question: What about the remaining binding at 1 µM (FLT1) of the same molecule?
Answer: 93%

Question: And the remaining binding at 1 µM (FLT4)?
Answer: 99%

Question: What about the remaining binding at 1 µM (GRK4) of the same molecule?
Answer: 88%

Question: What about the remaining binding at 1 µM (HIPK3) of the same molecule?
Answer: 100%

Question: What about the remaining binding at 1 µM (MARK3) of the same molecule?
Answer: 100%

Question: And the remaining binding at 1 µM (MEK3)?
Answer: 98%

Question: What about the remaining binding at 1 µM (MELK) of the same molecule?
Answer: 41%

Question: What about the remaining binding at 1 µM (MST2) of the same molecule?
Answer: 53%

Question: And the remaining binding at 1 µM (NEK1)?
Answer: 92%

Question: And the remaining binding at 1 µM (NEK4)?
Answer: 100%

Question: What about the remaining binding at 1 µM (PAK4) of the same molecule?
Answer: 94%

Question: What about the remaining binding at 1 µM (PFTAIRE2) of the same molecule?
Answer: 97%

Question: And the remaining binding at 1 µM (PFTK1)?
Answer: 100%

Question: And the remaining binding at 1 µM (PHKG1)?
Answer: 100%

Question: And the remaining binding at 1 µM (PKNB(M.tuberculosis))?
Answer: 100%

Question: What about the remaining binding at 1 µM (PRKCD) of the same molecule?
Answer: 100%

Question: And the remaining binding at 1 µM (QSK)?
Answer: 71%

Question: What about the remaining binding at 1 µM (RET(M918T)) of the same molecule?
Answer: 100%

Question: And the remaining binding at 1 µM (SLK)?
Answer: 8.8%

Question: And the remaining binding at 1 µM (ULK3)?
Answer: 92%

Question: What about the remaining binding at 1 µM (YANK1) of the same molecule?
Answer: 3.6%

Question: What about the GI50 [2] of the same molecule?
Answer: 340 nM

Question: What about the GI50 (A549 (EGFR wt)) of the same molecule?
Answer: 5400 nM

Question: What about the GI50 (H1355(EGFR wt)) of the same molecule?
Answer: 8100 nM

Question: What about the GI50 (H1703 (EGFR wt)) of the same molecule?
Answer: 7700 nM

Question: What about the GI50 (H2122 (EGFR wt)) of the same molecule?
Answer: 3500 nM

Question: What about the GI50 (H3255 (EGFRL858R)) of the same molecule?
Answer: 27 nM

Question: And the GI50 (HCC827 (EGFR del19))?
Answer: 36 nM

Question: What about the GI50 (PC-9 (EGFR del19)) of the same molecule?
Answer: 35 nM
